Assay results published in patent publication US20230257468A1, “CIS-Binding Siglec Agonists and Related Compositions And Methods” (The Board of Trustees of the Leland Stanford Junior …, priority 2020, published 2023).

What was measured:
Format in all cases: cell-based, human
neutrophils = test: Oxidative burst (ROS) in neutrophils
PADI4 substrate H3 = test: Western blot of H3 citrullination in neutrophils
dHL-60 cells = test: NETosis in neutrophil-like dHL-60 cells
Method: (a-c) Primary neutrophils were cotreated with R848 (10 μM) and glycopolypeptide (500 nM) in IMDM supplemented 0.5% hiFBS containing the membrane impermeable DNA intercalators Cytotox Green or Red (250 nM). Images were acquired by fluorescence microscopy every 15 min for 12 h. The area of all green fluorescent objects >300 μm^2 was quantified and the total area was averaged across three images per well. Relative NETosis was determined by normalizing to the maximal NET area from R848 treatment alone (t=8 h). (a) Representative phase contrast and fluorescence images from t=8 h. Scale bars indicate 40 μm. (b) Quantitation of NETosis over time as area under the curve in (c). Error bars represent SD. (c) NET formation and degradation as a function of time. Error bands represent SEM. (d) Treatment of R848-stimulated neutrophils with various glycopolypeptides. Error bars represent SD. (e) pS9L is a mucin-like glycopolypeptide that bears high affinity and specific ligands for Siglec-9 and is functionalized with a membrane-tethering lipid tail. (f) HL-60 cells were transfected with siRNAs against SIGLEC9 (encoding Siglec-9), PTPN6 (encoding SHP-1), or a scrambled control and then grown for two days. Cells were then cotreated with R848 (10 μM) and vehicle or pS9L (500 nM). […] Statistics were determined by two-way ANOVA (b) or one-way ANOVA (c,d,f). * p<0.05; ** p<0.01; *** p<0.001; **** p<0.0001. […]

primary neutrophils = test: Live-cell imaging NETosis assay, primary neutrophils; settings: healthy neutrophils in vitro
Method: (a-c) Primary neutrophils were cotreated with R848 (10 μM) and glycopolypeptide (500 nM) in IMDM supplemented 0.5% hiFBS containing the membrane impermeable DNA intercalators Cytotox Green or Red (250 nM). Images were acquired by fluorescence microscopy every 15 min for 12 h. The area of all green fluorescent objects >300 μm^2 was quantified and the total area was averaged across three images per well. Relative NETosis was determined by normalizing to the maximal NET area from R848 treatment alone (t=8 h). (a) Representative phase contrast and fluorescence images from t=8 h. Scale bars indicate 40 μm. (b) Quantitation of NETosis over time as area under the curve in (c). Error bars represent SD. (c) NET formation and degradation as a function of time. Error bands represent SEM. (d) Treatment of R848-stimulated neutrophils with various glycopolypeptides. Error bars represent SD. […] Statistics were determined by two-way ANOVA (b) or one-way ANOVA (c,d,f). * p<0.05; ** p<0.01; *** p<0.001; **** p<0.0001.
TLR agonists were assayed using the live-cell imaging techniques in which freshly isolated neutrophils are cultured in low-serum media in the presence of a fluorogenic and membrane impermeable DNA-intercalating dye (Cytotox Green). Upon genomic DNA-externalization by NETosis, dye intercalates and fluorescence increases. […]

| Structure (SMILES) | inhibition of pS9L-induced oxidative burst (neutrophils) | citrullination of H3 (PADI4 substrate H3) | induction of NETosis (dHL-60 cells) | induction of NETosis (primary neutrophils) |
| --- | --- | --- | --- | --- |
| O=S(=O)(O)c1ccc2cc(N=Nc3cc(S(=O)(=O)O)c4cccnc4c3O)ccc2c1 [NSC-87877] | the oxidative burst was inhibited | – | – | – |
| CCCCCCCCCCCCCC(=O)O[C@@H]1[C@@H](C)[C@@]2(O)[C@@H](C=C(CO)C[C@]3(O)C(=O)C(C)=C[C@@H]23)[C@@H]2C(C)(C)[C@]12OC(C)=O [PMA, phorbol-12-myristate-13-acetate] | – | only yields moderate citrullination | – | – |
| CCOCc1nc2c(N)nc3ccccc3c2n1CC(C)(C)O [R848] | – | rapidly induced citrullination at R2, R8, and R17 | induced NETosis | sufficient to induce NETosis |
